Results as given in patent publication US9095138B2, “Isoxazoline insecticides” (E.I. du Pont de Nemours and Company, priority 2007, dated 2015).

What was measured:
Assay type in all cases: in vivo
[1] = system: fall armyworm (Spodoptera frugiperda); assay: Test B: control of fall armyworm on corn (maize) plant, foliar spray; details: sprayed at 50 ppm; 1-day-old larvae on corn; replicated three times
Protocol: (§1) Test compounds were formulated using a solution containing 10% acetone, 90% water and 300 ppm X-77™ Spreader Lo-Foam Formula non-ionic surfactant containing alkylarylpolyoxyethylene, free fatty acids, glycols and isopropanol (Loveland Industries, Inc. Greeley, Colo., USA). The formulated compounds were applied in 1 mL of liquid through a SUJ2 atomizer nozzle with ⅛ JJ custom body (Spraying Systems Co. Wheaton, Ill., USA) positioned 1.27 cm (0.5 inches) above the top of each test unit. All experimental compounds in these tests were sprayed at 50 ppm, and the test was replicated three times. After spraying of the formulated test compound, each test unit was allowed to dry for 1 h and then a black, screened cap was placed on top. The test units were held for 6 days in a growth chamber at 25° C. and 70% relative humidity. Plant feeding damage was then visually assessed based on foliage consumed and a pest mortality rating was also counted and calculated for each test unit.
For evaluating control of fall armyworm (Spodoptera frugiperda) the test unit consisted of a small open container with a 4-5-day-old corn (maize) plant inside. This was pre-infested (using a core sampler) with 10-15 1-day-old larvae on a piece of insect diet. Test compounds were formulated and sprayed at 50 ppm as described for Test A and replicated three times. After spraying, the test units were maintained in a growth chamber and then the control efficacy was rated for each test unit as described for Test A.

[2] = system: western flower thrips (Frankliniella occidentalis); assay: Test E: control of western flower thrips on Soleil bean plant, contact and/or systemic; details: adult thrips, assessed after 6 days, replicated three times
Protocol: as §1
For evaluating control of the western flower thrips (Frankliniella occidentalis) through contact and/or systemic means, the test unit consisted of a small open container with a 5-7 day old Soleil Bean plant inside. Test compounds were formulated and sprayed as described for Test A. All experimental compounds in these tests were sprayed at 250 or 50 ppm as noted, and the test was replicated three times. After spraying, the test units were allowed to dry for 1 hour and then 22-27 adult thrips were added to each unit and then a black, screened cap was placed on top. The test units were held for 6 days at 25° C. and 45-55% relative humidity. A mortality rating was assessed along with a plant damage rating for each test unit.

[3] = system: diamondback moth (Plutella xylostella); assay: Test A: control of diamondback moth on radish plant, foliar spray; details: sprayed at 50 ppm; neonate larvae on radish; assessed after 6 days; replicated three times
Method in brief: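 Radish plants 12–14 days old, pre-infested with about 50 neonate larvae, were sprayed with compound at 50 ppm in 10% acetone/water with 300 ppm X-77 surfactant, in three replicates. Units were held 6 days at 25 °C and 70% RH. Feeding damage was assessed visually and mortality was counted.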

Structure (SMILES) | control efficacy (feeding damage or mortality): very good to excellent levels [1] | control efficacy (feeding damage or mortality): very good to excellent levels ([2]; sprayed at 50 ppm) | control efficacy (feeding damage or mortality): very good to excellent levels ([2]; sprayed at 250 ppm) | control efficacy (feeding damage or mortality): very good to excellent levels [3]
C[C@@H](NC(=O)c1ccc(C2=NOC(c3cc(C(F)(F)F)cc(C(F)(F)F)c3)(C(F)(F)F)C2)c2ccccc12)C(=O)NCC1CC1(F)F (some centres unmarked) [Compound 80] | 20% or less feeding damage or 80% or more mortality | 20% or less feeding damage or 80% or more mortality | 20% or less feeding damage or 80% or more mortality | 20% or less feeding damage or 80% or more mortality
C[C@@H](NC(=O)c1ccc(C2=NOC(c3cc(C(F)(F)F)cc(C(F)(F)F)c3)(C(F)(F)F)C2)c2ccccc12)C(=O)NC1CC1 (some centres unmarked) [Compound 64] | 20% or less feeding damage or 80% or more mortality | 20% or less feeding damage or 80% or more mortality | 20% or less feeding damage or 80% or more mortality | 20% or less feeding damage or 80% or more mortality
CC(NC(=O)c1ccc(C2=NOC(c3cc(C(F)(F)F)cc(C(F)(F)F)c3)(C(F)(F)F)C2)c2ccccc12)C(=O)NCC1CC1 (centres unmarked) [Compound 68] | 20% or less feeding damage or 80% or more mortality | 20% or less feeding damage or 80% or more mortality | 20% or less feeding damage or 80% or more mortality | 20% or less feeding damage or 80% or more mortality
C[C@@H](NC(=O)c1ccc(C2=NOC(c3cc(Cl)cc(C(F)(F)F)c3)(C(F)(F)F)C2)c2ccccc12)C(=O)NC1CC1 (some centres unmarked) [Compound 72] | 20% or less feeding damage or 80% or more mortality | 20% or less feeding damage or 80% or more mortality | 20% or less feeding damage or 80% or more mortality | 20% or less feeding damage or 80% or more mortality
CC(NC(=O)c1ccc(C2=NOC(c3cc(C(F)(F)F)cc(C(F)(F)F)c3)(C(F)(F)F)C2)c2ccccc12)C(=O)O (mixture of isomers) [Compound 31] | 20% or less feeding damage or 80% or more mortality | – | 20% or less feeding damage or 80% or more mortality | 20% or less feeding damage or 80% or more mortality
C[C@@H](NC(=O)c1ccc(C2=NOC(c3cc(Cl)cc(C(F)(F)F)c3)(C(F)(F)F)C2)c2ccccc12)C(=O)NCC1CC1 (some centres unmarked) [Compound 73] | 20% or less feeding damage or 80% or more mortality | 20% or less feeding damage or 80% or more mortality | 20% or less feeding damage or 80% or more mortality | 20% or less feeding damage or 80% or more mortality
CC(=O)N(C)CCCNC(=O)c1ccc(C2=NOC(c3cc(Cl)cc(Cl)c3)(C(F)(F)F)C2)c2ccccc12 (racemic) [Compound 4] | 20% or less feeding damage or 80% or more mortality | 20% or less feeding damage or 80% or more mortality | 20% or less feeding damage or 80% or more mortality | 20% or less feeding damage or 80% or more mortality
CC(NC(=O)c1ccc(C2=NOC(c3cc(C(F)(F)F)cc(C(F)(F)F)c3)(C(F)(F)F)C2)c2ccccc12)C(=O)NC1CC1 (centres unmarked) [Compound 67] | 20% or less feeding damage or 80% or more mortality | 20% or less feeding damage or 80% or more mortality | 20% or less feeding damage or 80% or more mortality | 20% or less feeding damage or 80% or more mortality
O=C(CNC(=O)c1ccc(C2=NOC(c3cc(Cl)cc(Cl)c3)(C(F)(F)F)C2)c2ccccc12)NC1CC1 (centres unmarked) [Compound 50] | 20% or less feeding damage or 80% or more mortality | 20% or less feeding damage or 80% or more mortality | 20% or less feeding damage or 80% or more mortality | 20% or less feeding damage or 80% or more mortality
O=C(NCC(=O)N1CCC(F)(F)C1)c1ccc(C2=NOC(c3cc(Cl)cc(Cl)c3)(C(F)(F)F)C2)c2ccccc12 (centres unmarked) [Compound 90] | 20% or less feeding damage or 80% or more mortality | 20% or less feeding damage or 80% or more mortality | 20% or less feeding damage or 80% or more mortality | 20% or less feeding damage or 80% or more mortality
CC(C)[C@@H](NC(=O)c1ccc(C2=NOC(c3cc(Cl)cc(C(F)(F)F)c3)(C(F)(F)F)C2)c2ccccc12)C(N)=O (some centres unmarked) [Compound 87] | 20% or less feeding damage or 80% or more mortality | 20% or less feeding damage or 80% or more mortality | – | 20% or less feeding damage or 80% or more mortality
O=C(CNC(=O)c1ccc(C2=NOC(c3cc(Cl)cc(OC(F)(F)F)c3)(C(F)(F)F)C2)c2ccccc12)NCC1CC1 (centres unmarked) [Compound 81] | 20% or less feeding damage or 80% or more mortality | 20% or less feeding damage or 80% or more mortality | – | 20% or less feeding damage or 80% or more mortality
O=C(CNC(=O)c1ccc(C2=NOC(c3cc(Cl)cc(Cl)c3)(C(F)(F)F)C2)c2ccccc12)NCC1CC1 (centres unmarked) [Compound 44] | 20% or less feeding damage or 80% or more mortality | 20% or less feeding damage or 80% or more mortality | 20% or less feeding damage or 80% or more mortality | 20% or less feeding damage or 80% or more mortality
C[C@@H](NC(=O)c1ccc(C2=NOC(c3cc(Br)cc(C(F)(F)F)c3)(C(F)(F)F)C2)c2ccccc12)C(N)=O (some centres unmarked) [Compound 83] | 20% or less feeding damage or 80% or more mortality | 20% or less feeding damage or 80% or more mortality | – | 20% or less feeding damage or 80% or more mortality
O=C(CNC(=O)c1ccc(C2=NOC(c3cc(Cl)cc(OCC(F)(F)F)c3)(C(F)(F)F)C2)c2ccccc12)NCC1CC1 (centres unmarked) [Compound 84] | 20% or less feeding damage or 80% or more mortality | 20% or less feeding damage or 80% or more mortality | – | 20% or less feeding damage or 80% or more mortality
C[C@@H](NC(=O)c1ccc(C2=NOC(c3cc(C(F)(F)F)cc(C(F)(F)F)c3)(C(F)(F)F)C2)c2ccccc12)C(N)=O (some centres unmarked) [Compound 65] | 20% or less feeding damage or 80% or more mortality | 20% or less feeding damage or 80% or more mortality | – | 20% or less feeding damage or 80% or more mortality
CC(NC(=O)c1ccc(C2=NOC(c3cc(Cl)cc(C(F)(F)F)c3)(C(F)(F)F)C2)c2ccccc12)C(=O)NC1CC1 (centres unmarked) [Compound 78] | 20% or less feeding damage or 80% or more mortality | 20% or less feeding damage or 80% or more mortality | 20% or less feeding damage or 80% or more mortality | 20% or less feeding damage or 80% or more mortality
